{"source": "patent US20220112515A1", "about": "“Method for Producing Virus-Infected Cell Line and Animal Model” (INDUSTRY-ACADEMIC COOPERATION FOUNDATION, YONSEI UNIVERSITY, priority 2018, published 2022)", "key": {"Hepa1c1c7 cell line [1]": {"tested_on": "Hepa1c1c7 cell line", "details": "HCV mixed with tCA (mouse hepatocytes)", "source_text": "(§1) For production of enveloped virus-infected cell line models, HBV (1×10^6 copies/ml/well of HBV) isolated in Example 1 above was mixed with 100 μmol/L of taurochenodeoxycholic acid (hereinafter referred to as ‘tCDCA’), and HCV (1×10^6 IU/ml/well of HCV) isolated in Example 1 above was mixed with tCDCA or taurocholic acid (hereinafter referred to as ‘tCA’). Here, tCA was mixed with HCV and used to infect mouse hepatocytes; and tCDCA was used in all other cases.\n(§2) A cell line (HepG2, Huh-7, A549, A-498, MDA-MB-231, Jurkat, HeLa, Hepa1c1c7, EL4, H4-II-E, LA-4, LC540, or RAG cell line) at 5×10^6 cells/ml was dispensed into each well of a 6-well plate, and culture was performed for 24 hours. Then, the tCDCA or tCA solution mixed with HBV or HCV was added thereto, and culture was further performed for 24 hours. Here, as a control, a group, to which only HBV or HCV was added without the tCDCA or tCA solution, was used. […] Finally, the cell culture medium was treated with 100 μmol/L of tCDCA or tCA, and culture was further performed for 3 days, thereby producing a virus-infected cell line model (hereinafter referred to as “infected cell line”).\n(§3) The levels of HCV core and HCV RNA present were measured in each of the HCV-infected cell lines produced and the culture medium collected therefrom. […]"}, "H4-II-E cell line [2]": {"tested_on": "H4-II-E cell line", "details": "HCV mixed with tCA", "source_text": "as §1, §2, §3"}, "HeLa cell line": {"tested_on": "HeLa cell line", "assay": "HBV infection of HeLa cell line with tCDCA-mixed HBV", "assay_type": "cell-based, human", "details": "HBV mixed with 100 μmol/L tCDCA", "experimental": "(§4) In addition, […] was performed using an anti-HBcAg antibody, to measure a level of HBcAg present. Specifically, 100 μl/well of anti-HBcAg antibody (10E11) (cat no. MA1-7608; Thermo Fisher, USA) was added to a micro ELISA plate, and the reaction was allowed to proceed at 4° C. overnight. Then, 200 μl/well of 1× ELISA/ELISPOT Diluent (Invitrogen, USA) was additionally added thereto, and the reaction was allowed to proceed for 1 hour. Each of the HBV-infected cell lines produced was dispensed into each well, in which the reaction had been completed, and the reaction was allowed to proceed for 2 hours. Then, the anti-HBcAg antibody (10E11) diluted in a ratio of 1:30 with 100 μl of 1× ELISA/ELISPOT Diluent was added to the plate, and the reaction was allowed to proceed for 1 hour. Then, the additional reaction with 100 μl of HRP-conjugated anti-rabbit IgG was allowed to proceed for 30 minutes. Here, as a positive control, PLC/PRF5 cell line (human liver-derived cell line that releases HBV surface antigen) was used, and levels of HBsAg and HBcAg present therein were measured."}, "Huh-7 cell line [3]": {"tested_on": "Huh-7 cell line", "assay": "HBV infection of Huh-7 cell line with tCDCA-mixed HBV", "assay_type": "cell-based, human", "details": "HBV mixed with 100 μmol/L tCDCA", "experimental": "as §4"}, "A498 cell line [4]": {"tested_on": "A498 cell line", "assay": "HBV infection of A498 cell line with tCDCA-mixed HBV", "assay_type": "cell-based, human", "details": "HBV mixed with 100 μmol/L tCDCA", "experimental": "as §4"}, "HepG2 cell line [5]": {"tested_on": "HepG2 cell line", "assay": "HBV infection of HepG2 cell line with tCDCA-mixed HBV", "assay_type": "cell-based, human", "details": "HBV mixed with 100 μmol/L tCDCA", "experimental": "as §4"}, "Jurkat cell line [6]": {"tested_on": "Jurkat cell line", "assay": "HCV infection of Jurkat cell line with tCDCA-mixed HCV", "assay_type": "cell-based, human", "protocol": "(§5) The levels of HCV core and HCV RNA present were measured in each of the HCV-infected cell lines produced and the culture medium collected therefrom. Specifically, measurement of HCV RNA was performed by requesting a specialized inspection agency (Biogeno Korea Co., Ltd., Korea) that utilizes the Roche's COBAS TaqMan system. Here, as a control, a group treated with only HCV without a bile acid derivative was used."}, "MDA-MB-231 cell line [7]": {"tested_on": "MDA-MB-231 cell line", "assay": "HCV infection of MDA-MB-231 cell line with tCDCA-mixed HCV", "assay_type": "cell-based, human"}, "Jurkat cell line [8]": {"tested_on": "Jurkat cell line", "assay": "HBV infection of Jurkat cell line with tCDCA-mixed HBV", "assay_type": "cell-based, human", "details": "HBV mixed with 100 μmol/L tCDCA", "experimental": "as §4"}, "RAG cell line": {"tested_on": "RAG cell line", "assay": "HBV infection of RAG cell line with tCDCA-mixed HBV", "assay_type": "cell-based, mouse", "details": "HBV mixed with 100 μmol/L tCDCA", "experimental": "as §4"}, "A498 cell line [9]": {"tested_on": "A498 cell line", "assay": "HCV infection of A498 cell line with tCDCA-mixed HCV", "assay_type": "cell-based, human"}, "A549 cell line": {"tested_on": "A549 cell line", "assay": "HCV infection of A549 cell line with tCDCA-mixed HCV", "assay_type": "cell-based, human"}, "EL4 cell line [10]": {"tested_on": "EL4 cell line", "assay": "HCV infection of EL4 cell line with tCDCA-mixed HCV", "assay_type": "cell-based, mouse", "protocol": "as §5"}, "Huh-7 cell line [11]": {"tested_on": "Huh-7 cell line", "assay": "HCV infection of Huh-7 cell line with tCDCA-mixed HCV", "assay_type": "cell-based, human", "protocol": "as §5"}, "LC540 cell line [12]": {"tested_on": "LC540 cell line", "assay": "HCV infection of LC540 cell line with tCDCA-mixed HCV", "assay_type": "cell-based, rat", "protocol": "as §5"}, "EL4 cell line [13]": {"tested_on": "EL4 cell line", "assay": "HBV infection of EL4 cell line with tCDCA-mixed HBV", "assay_type": "cell-based, mouse", "details": "HBV mixed with 100 μmol/L tCDCA", "experimental": "as §4"}, "MDA-MB-231 cell line [14]": {"tested_on": "MDA-MB-231 cell line", "assay": "HBV infection of MDA-MB-231 cell line with tCDCA-mixed HBV", "assay_type": "cell-based, human", "details": "HBV mixed with 100 μmol/L tCDCA", "experimental": "as §4"}, "Hepa1c1c7 cell line [15]": {"tested_on": "Hepa1c1c7 cell line", "assay": "HBV infection of Hepa1c1c7 cell line with tCDCA-mixed HBV", "assay_type": "cell-based, mouse", "details": "HBV mixed with 100 μmol/L tCDCA", "experimental": "as §4"}, "LC540 cell line [16]": {"tested_on": "LC540 cell line", "assay": "HBV infection of LC540 cell line with tCDCA-mixed HBV", "assay_type": "cell-based, rat", "details": "HBV mixed with 100 μmol/L tCDCA", "experimental": "as §4"}, "HepG2 cell line [17]": {"tested_on": "HepG2 cell line", "assay": "HCV infection of HepG2 cell line with tCDCA-mixed HCV", "assay_type": "cell-based, human"}, "H4-II-E cell line [18]": {"tested_on": "H4-II-E cell line", "assay": "HBV infection of H4-II-E cell line with tCDCA-mixed HBV", "assay_type": "cell-based, rat", "details": "HBV mixed with 100 μmol/L tCDCA", "experimental": "as §4"}}}
{"smiles": "C[C@H](CCC(=O)NCCS(=O)(=O)O)[C@H]1CC[C@H]2[C@@H]3[C@H](O)C[C@@H]4C[C@H](O)CC[C@]4(C)[C@H]3C[C@H](O)[C@]12C", "note": "[tCA, taurocholic acid]", "values": [{"measurement": "HCV RNA (IU/ml)", "setting": "Hepa1c1c7 cell line [1]", "result": 3430, "unit": "IU/ml"}, {"measurement": "HCV RNA (IU/ml)", "setting": "H4-II-E cell line [2]", "result": 197.33, "unit": "IU/ml"}]}
{"smiles": "C[C@H](CCC(=O)NCCS(=O)(=O)O)[C@H]1CC[C@H]2[C@@H]3[C@H](O)C[C@@H]4C[C@H](O)CC[C@]4(C)[C@H]3CC[C@]12C", "note": "[tCDCA, taurochenodeoxycholic acid]", "values": [{"measurement": "HBV DNA (copies/ml)", "setting": "HeLa cell line", "result": 359, "unit": "copies/ml"}, {"measurement": "HBsAg (Index)", "setting": "HeLa cell line", "result": 61.35, "unit": "Index"}, {"measurement": "HBcAg (Index)", "setting": "HeLa cell line; FACS", "result": 89.6, "unit": "%"}, {"measurement": "HBV DNA (copies/ml)", "setting": "Huh-7 cell line [3]", "result": "89,000 ± 1,836 copies/ml"}, {"measurement": "HBsAg (Index)", "setting": "Huh-7 cell line [3]", "result": "26.02 ± 5.97", "unit": "Index"}, {"measurement": "HBcAg (Index)", "setting": "Huh-7 cell line [3]; FACS", "result": 69.8, "unit": "%"}, {"measurement": "HBV DNA (copies/ml)", "setting": "A498 cell line [4]", "result": "73,500 ± 23,292 copies/ml"}, {"measurement": "HBsAg (Index)", "setting": "A498 cell line [4]", "result": "5.12 ± 0.19", "unit": "Index"}, {"measurement": "HBcAg (Index)", "setting": "A498 cell line [4]; FACS", "result": 67.1, "unit": "%"}, {"measurement": "HBV DNA (copies/ml)", "setting": "HepG2 cell line [5]", "result": "3,590,000 ± 1,010,000 copies/ml"}, {"measurement": "HBsAg (Index)", "setting": "HepG2 cell line [5]", "result": "474.70 ± 176.30", "unit": "Index"}, {"measurement": "HBcAg (Index)", "setting": "HepG2 cell line [5]; FACS", "result": 61.6, "unit": "%"}, {"measurement": "HCV RNA (IU/ml)", "setting": "Jurkat cell line [6]", "result": 3326.667, "unit": "IU/ml"}, {"measurement": "HCV RNA (IU/ml)", "setting": "MDA-MB-231 cell line [7]", "result": 605, "unit": "IU/ml"}, {"measurement": "HBV DNA (copies/ml)", "setting": "Jurkat cell line [8]", "result": "868,000 ± 88,963 copies/ml"}, {"measurement": "HBsAg (Index)", "setting": "Jurkat cell line [8]", "result": "1081 ± 329", "unit": "Index"}, {"measurement": "HBcAg (Index)", "setting": "Jurkat cell line [8]; FACS", "result": 37.5, "unit": "%"}, {"measurement": "HBV DNA (copies/ml)", "setting": "RAG cell line", "result": "11,700 (622, 000) copies/ml"}, {"measurement": "HBsAg (Index)", "setting": "RAG cell line", "result": "21 (744) Index"}, {"measurement": "HBcAg (Index)", "setting": "RAG cell line; FACS", "result": 76.6, "unit": "%"}, {"measurement": "HCV RNA (IU/ml)", "setting": "A498 cell line [9]", "result": 610, "unit": "IU/ml"}, {"measurement": "HCV RNA (IU/ml)", "setting": "A549 cell line", "result": 4550, "unit": "IU/ml"}, {"measurement": "HCV RNA (IU/ml)", "setting": "EL4 cell line [10]", "result": 1669, "unit": "IU/ml"}, {"measurement": "HCV RNA (IU/ml)", "setting": "Huh-7 cell line [11]", "result": 628.066, "unit": "IU/ml"}, {"measurement": "HCV RNA (IU/ml)", "setting": "LC540 cell line [12]", "result": 21.7, "unit": "IU/ml"}, {"measurement": "HBV DNA (copies/ml)", "setting": "EL4 cell line [13]", "result": "673,000 ± 60,053 copies/ml"}, {"measurement": "HBsAg (Index)", "setting": "EL4 cell line [13]", "result": "192.7 ± 30.60", "unit": "Index"}, {"measurement": "HBcAg (Index)", "setting": "EL4 cell line [13]; FACS", "result": 66.9, "unit": "%"}, {"measurement": "HBV DNA (copies/ml)", "setting": "MDA-MB-231 cell line [14]", "result": 116, "unit": "copies/ml"}, {"measurement": "HBsAg (Index)", "setting": "MDA-MB-231 cell line [14]", "result": 169, "unit": "Index"}, {"measurement": "HBcAg (Index)", "setting": "MDA-MB-231 cell line [14]; FACS", "result": 87.4, "unit": "%"}, {"measurement": "HBV DNA (copies/ml)", "setting": "Hepa1c1c7 cell line [15]", "result": "7,036,667 copies/ml"}, {"measurement": "HBsAg (Index)", "setting": "Hepa1c1c7 cell line [15]", "result": "508.26 ± 107.6", "unit": "Index"}, {"measurement": "HBcAg (Index)", "setting": "Hepa1c1c7 cell line [15]; FACS", "result": 77.1, "unit": "%"}, {"measurement": "HBV DNA (copies/ml)", "setting": "LC540 cell line [16]", "result": "149,000 ± 29,866 copies/ml"}, {"measurement": "HBsAg (Index)", "setting": "LC540 cell line [16]", "result": "3.06 ± 0.44", "unit": "Index"}, {"measurement": "HCV RNA (IU/ml)", "setting": "HepG2 cell line [17]", "result": 85.233, "unit": "IU/ml"}, {"measurement": "HBV DNA (copies/ml)", "setting": "H4-II-E cell line [18]", "result": "73,000 ± 51,929 copies/ml"}, {"measurement": "HBsAg (Index)", "setting": "H4-II-E cell line [18]", "result": "22.73 ± 4.39", "unit": "Index"}, {"measurement": "HBcAg (Index)", "setting": "H4-II-E cell line [18]; FACS", "result": 32.6, "unit": "%"}]}
